# Reference: US9854804B2, “Antifungal composition comprising polycyclic peptide compound and method for preparing the same” (KOREAN RESEARCH INSTITUTE OF BIOSCIENCE AND BIOTECHNOLOGY, priority 2011, dated 2018)
# Read-outs that look alike come from different tables or passages of the source.
# How the values were obtained:
# [1] = system: Staphylococcus aureus RN 4220; test: Broth microdilution antibacterial activity (MIC); format: cell-based
# Experimental: (§1) Test strains were maintained in MHB (Mueller Hinton broth), and antibacterial activity was measured using a broth microdilution method. After being incubated overnight, each of the test stains was diluted to a population of 2×100,000 cells/ml, and aliquoted in an amount of 100 μl per well into 96-well plates. Complestatin, neuroprotectin A and positive controls such as vancomycin, oxacillin and nofloxacin were treated at concentration with gradual dilution by 2-fold from maximum concentration of 128 μg/ml. Each compound was diluted in dimethylsulxoside (DMSO), and the concentration of DMSO was adjusted to approximately 1/100 before application. After incubation for 20 hrs, absorbance was read at 650 nm to examine the growth of bacterial cells.
# (§2) The compounds of the present invention, complestatin and neuroprotectin A were examined for antibacterial activity against vacomycin-resistant bacteria in the same manner as in Example 4, and the results are given in Table 4, below.
# MRSA CCARM 3167 = test: Broth microdilution antibacterial activity (MIC); format: cell-based, Methicillin-resistant Staphylococcus aureus; conditions: Staphylococcus aureus
# Experimental: as §1
# MRSA CCARM 3506 = test: Broth microdilution antibacterial activity (MIC); format: cell-based, Methicillin-resistant Staphylococcus aureus; conditions: Staphylococcus aureus
# Experimental: as §1
# QRSA CCARM 3505 = test: Broth microdilution antibacterial activity (MIC); format: cell-based, Quinolone-resistant Staphylococcus aureus; conditions: Staphylococcus aureus, CCARM3505
# Experimental: as §1
# QRSA CCARM 3519 = test: Broth microdilution antibacterial activity (MIC); format: cell-based, Quinolone-resistant Staphylococcus aureus; conditions: Staphylococcus aureus, CCARM3519
# Experimental: as §1
# [2] = system: Bacillus cereus KCTC 1661; test: Broth microdilution antibacterial activity (MIC); format: cell-based; conditions: KCTC1661
# Experimental: as §1
# [3] = system: Bacillus subtilis KCTC 1021; test: Broth microdilution antibacterial activity (MIC); format: cell-based; conditions: KCTC1021
# Experimental: as §1
# [4] = system: Entercoccus faecium KCTC 3511; test: Broth microdilution antibacterial activity (MIC); format: cell-based; conditions: Enterococcus faecium, KCTC3511
# Experimental: as §1
# [5] = system: Entercoccus faecium KCTC 5191; test: Broth microdilution antibacterial activity (MIC); format: cell-based; conditions: Enterococcus faecium, KCTC5191
# Experimental: as §1
# [6] = system: Staphylococcus aureus 209; test: Broth microdilution antibacterial activity (MIC); format: cell-based
# Experimental: as §1
# [7] = system: Staphylococcus epidermidis KCTC 3958; test: Broth microdilution antibacterial activity (MIC); format: cell-based; conditions: KCTC3958
# Experimental: as §1
# VRSA 48 = test: Antibacterial activity against vancomycin-resistant bacteria (MIC); format: cell-based, Vancomycin-resistant S. aureus; conditions: Staphylococcus aureus
# Experimental: as §1, §2
# VRE 11 = test: as above; format: cell-based; conditions: Enterococcus
# Experimental: as §1, §2
# VRE 3 = test: as above; format: cell-based; conditions: Enterococcus
# Experimental: as §1, §2
# VRE 7 = test: as above; format: cell-based; conditions: Enterococcus
# Experimental: as §1, §2
# [8] = system: Staphylococcus aureus, Bacillus subtilis, Bacillus cereus, Enterococcus faecium and Staphylococcus epidermis, MRSA, QRSA; test: Antibacterial activity, summary over the panel of Table 3; format: cell-based
# Experimental: as §1
# [9] = system: Vancomycin-resistant S. aureus (VRSA) and Vancomycin-resistant Enterococcus (VRE); test: Antibacterial activity, vancomycin-resistant bacteria of Table 4; format: cell-based
# Experimental: as §1, §2
# [10] = RN4220, Staphylococcus aureus RN 4220, Table 3, read-out: MIC
# [11] = Bacillus cereus KCTC 1661, read-out: MIC
# [12] = Bacillus subtilis KCTC 1021, read-out: MIC
# [13] = Entercoccus faecium KCTC 3511, read-out: MIC
# [14] = Entercoccus faecium KCTC 5191, read-out: MIC
# [15] = Staphylococcus aureus 209, 20 hrs incubation, MHB, read-out: MIC
# [16] = Staphylococcus epidermidis KCTC 3958, read-out: MIC
# [17] = against VRSA and VRE (text summary of Table 4), read-out: MIC
SMILES,"MIC [1, 10] [µg/mL]","MIC ([1]; S. aureus RN 4220, Table 4) [µg/mL]","MIC (MRSA CCARM 3167; MRSA CCARM 3167, read-out: MIC) [µg/mL]","MIC (MRSA CCARM 3506; MRSA CCARM 3506, read-out: MIC) [µg/mL]","MIC (QRSA CCARM 3505; QRSA CCARM 3505, read-out: MIC) [µg/mL]","MIC (QRSA CCARM 3519; QRSA CCARM 3519, read-out: MIC) [µg/mL]","MIC [2, 11] [µg/mL]","MIC [3, 12] [µg/mL]","MIC [4, 13] [µg/mL]","MIC [5, 14] [µg/mL]","MIC [6, 15] [µg/mL]","MIC [7, 16] [µg/mL]","MIC (VRSA 48; VRSA 48, read-out: MIC) [µg/mL]","MIC (VRE 11; VRE 11, read-out: MIC) [µg/mL]","MIC (VRE 3; VRE 3, read-out: MIC) [µg/mL]","MIC (VRE 7; VRE 7, read-out: MIC) [µg/mL]",MIC [8] [µg/mL],"MIC [9, 17] [µg/mL]",other results
CN1C(=O)C(c2cc(Cl)c(O)c(Cl)c2)NC(=O)C2NC(=O)C(c3cc(Cl)c(O)c(Cl)c3)NC(=O)C(NC(=O)C(=O)c3cc(Cl)c(O)c(Cl)c3)Cc3c[nH]c4cc(ccc34)-c3cc2cc(c3O)Oc2ccc(cc2)CC1C(=O)NC(C(=O)O)c1ccc(O)cc1 (centres unmarked) [Complestatin],1,1,1,1,1,2,0.5,0.5,2,2,2,2,1,1,1,1,0.5 to 2,1,
CN1C(=O)C(c2cc(Cl)c(O)c(Cl)c2)NC(=O)C2NC(=O)C(c3cc(Cl)c(O)c(Cl)c3)NC(=O)C(NC(=O)C(=O)c3cc(Cl)c(O)c(Cl)c3)CC3C(=O)Nc4cc(ccc43)-c3cc2cc(c3O)Oc2ccc(cc2)CC1C(=O)NC(C(=O)O)c1ccc(O)cc1 (centres unmarked) [Neuroprotectin A],1,1,1,1,1,2,0.5,0.5,2,2,2,2,1,1,1,1,0.5 to 2,1,
CCn1cc(C(=O)O)c(=O)c2cc(F)c(N3CCNCC3)cc21 [Norfloxacin],1,1,8,1,250,125,1,0.25,4,4,0.25,0.5,200,200,50,50,,,
Cc1onc(-c2ccccc2)c1C(=O)N[C@@H]1C(=O)N2[C@@H]1SC(C)(C)[C@@H]2C(=O)O [Oxacillin],0.25,0.25,500,500,0.5,0.5,32,0.25,8,4,0.25,0.25,> 200,> 200,> 200,> 200,,> 200,
CN[C@H](CC(C)C)C(=O)N[C@H]1C(=O)N[C@@H](CC(N)=O)C(=O)N[C@H]2C(=O)N[C@H]3C(=O)N[C@H](C(=O)N[C@H](C(=O)O)c4cc(O)cc(O)c4-c4cc3ccc4O)[C@H](O)c3ccc(c(Cl)c3)Oc3cc2cc(c3O[C@@H]2O[C@H](CO)[C@@H](O)[C@H](O)[C@H]2O[C@H]2C[C@](C)(N)[C@H](O)[C@H](C)O2)Oc2ccc(cc2Cl)[C@H]1O [Vancomycin],,1,,,,,,,,,,,,,,,,,"MIC ([1]; Staphylococcus aureus, RN4220): 1 µg/mL; MIC (MRSA CCARM 3167): 2 µg/mL; MIC (MRSA CCARM 3506): 0.5 µg/mL; MIC (QRSA CCARM 3505): 1 µg/mL; MIC (QRSA CCARM 3519): 1 µg/mL; MIC ([2]; Bacillus cereus): 1 µg/mL; MIC ([3]; Bacillus subtilis): 0.125 µg/mL; MIC [4]: 2 µg/mL; MIC [5]: 1 µg/mL; MIC ([6]; Staphylococcus aureus, 209, 20 h): 0.5 µg/mL; MIC ([7]; Staphylococcus epidermidis): 2 µg/mL; MIC (VRSA 48; VRSA): > 200 µg/mL; MIC (VRE 11; VRE): > 200 µg/mL; MIC (VRE 3; VRE): > 200 µg/mL; MIC (VRE 7; VRE): > 200 µg/mL; MIC ([9]; VRE): > 200 µg/mL"
